# Laboratory results published in patent publication US8748412B2, “Phenylalanine derivatives and their use as non-peptide GLP-1 receptor modulators” (Argusina Bioscience Inc., priority 2011, dated 2014).
# Target: T1, human GLP1R (Homo sapiens, UniProt P43220)
# T1 construct: expressed in transfected cells; host or cells: CHO cells (ATCC), transient transfection with pCMV-human GLP1R
# Experiment: Human GLP-1 receptor transfected cell assay (MRE/CRE-luciferase reporter gene, agonist activity)
# Format: cell-based
# Details: 6 h; concentration 1 μM; read-out: Activity (agonist), percentage of the activity of the control
# Method: The glucagon-like peptide I receptor (GLP1R) is a class B Gs-coupled membrane receptor, an agonist of which activates adenylate cyclase (AC) and elevates intracellular cAMP level. In turn, the high content of secondary messengers can activate the cAMP response element binding protein (CREB), which can translocate into nucleus to activate gene transcription.
# A reporter gene based screening assay was established to measure the effect of a compound on GLP1R. In this assay, a compound was incubated with CHO cells transiently transfected with a human GLP1R plasmid and a multiple response element (MRE)/cAMP response element (CRE)-driven luciferase reporter plasmid. Once luciferase was induced by the compound, its specific substrate can be activated to produce light signal for measurement.
# Materials used in this assay included: (i) cell line: Chinese hamster ovary (CHO) cells (ATCC); (ii) fetal bovine serum (FBS) (Biochrom Co.); (iii) culture medium: RPMI1640 (Invitrogen Co.) supplemented with 10% FBS; (iv) LIPOFECTAMINE™ 2000 Reagent (Invitrogen Co.); (v) plasmids: pCMV-human GLP1R and pGL3-1905 reporter plasmid; (vi) GLP1 (7-36 amide) peptide (Sigma Co.); and (vii) BRIGHT-GLO™ Luciferase Assay System (Promega Co.).
# Instruments used in this assay included: (i) Form a carbon dioxide incubator (Thermo Form a Co.); and (ii) Flexstation 3 (Molecular Device Co.).
# Before transfection, CHO cells were plated into a 6-well culture plate at 800,000/2 mL/well, and cultured at 37° C. in 5% CO2 overnight. On the transfection day, cells were transfected with receptor plasmid and reporter plasmid using LIPOFECTAMINE™ 2000 reagent. After 6-hour transfection, cells were digested and seeded into 96-well plates at 20,000/100 μL/well. After 14-16 hour incubation, transfected cells were washed with 100 μL serum-free RPMII 640 medium first, and then added 50 μL of the culture medium. The GLP-1 standard and test compounds were respectively diluted to a series of concentrations, which were then added into the above 96-well culture plate at 50 μL/well. The cells were incubated at 37° C. in 5% CO2 for 6 hrs. The activity of luciferase was detected using BRIGHT-GLO™ Luciferase Analytic System, and the reading was performed with a Flexstation3 plate reader machine.
# T1 sequence (P43220 24-463): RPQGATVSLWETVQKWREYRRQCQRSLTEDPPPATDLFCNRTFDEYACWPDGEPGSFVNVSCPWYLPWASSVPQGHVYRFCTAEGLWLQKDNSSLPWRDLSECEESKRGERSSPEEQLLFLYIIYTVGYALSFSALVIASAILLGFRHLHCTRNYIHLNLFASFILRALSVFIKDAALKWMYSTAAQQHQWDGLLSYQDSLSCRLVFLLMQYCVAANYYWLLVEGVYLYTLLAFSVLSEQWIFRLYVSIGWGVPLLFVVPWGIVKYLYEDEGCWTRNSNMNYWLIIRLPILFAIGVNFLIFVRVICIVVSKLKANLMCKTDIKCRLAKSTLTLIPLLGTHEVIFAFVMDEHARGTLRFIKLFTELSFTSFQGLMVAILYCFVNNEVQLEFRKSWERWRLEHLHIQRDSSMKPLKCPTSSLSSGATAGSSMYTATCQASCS
row,SMILES,activation at 1 µM
1,CC(C)(C)OC(=O)Nc1ccc(-c2nc(-c3ccc(CC(NS(=O)(=O)c4ccc(Br)c(F)c4)C(=O)O)cc3F)no2)cc1 (centres unmarked) [Compound 3O],20 to 40%
2,"Cc1ccc(S(=O)(=O)NC(Cc2ccc(-c3noc(-c4ccc(NC(=O)OC(C)(C)C)cc4)n3)c(F)c2)C(=O)O)cc1Cl (centres unmarked) [Compound 3P, 3-{4-[5-(4-tert-Butoxcarbonylamino-phenyl)-[1,2,4]oxadiazol-3-yl]-3-fluorophenyl}-2-(3-chloro-4-methyl-benzenesulfonylamino)-propionic acid]",40 to 60%
3,CC(C)(C)OC(=O)Nc1ccc(-c2nc(-c3ccc(C[C@@H](NS(=O)(=O)c4ccc(-c5ccccc5)cc4)C(=O)O)cc3F)no2)cc1 [Compound 3Q],20 to 40%
4,CC1CCN(c2cccc(C(=O)NC(Cc3ccc(-c4noc(-c5ccc(NC(=O)OC(C)(C)C)cc5)n4)c(F)c3)C(=O)O)c2)CC1 (centres unmarked) [Compound 3S],> 60%
5,CC(C)(C)OC(=O)Nc1ccc(-c2nc(-c3ccc(CC(NC(=O)c4cccc(NCc5ccccc5)c4)C(=O)O)cc3F)no2)cc1 (centres unmarked) [Compound 3U],20 to 40%
6,CC1CCN(S(=O)(=O)NC(Cc2ccc(-c3noc(-c4ccc(NC(=O)OC(C)(C)C)cc4)n3)c(F)c2)C(=O)O)CC1 (centres unmarked) [Compound 3W],40 to 60%
7,Cc1cccc(CN2CCN(S(=O)(=O)NC(Cc3ccc(-c4noc(-c5ccc(NC(=O)OC(C)(C)C)cc5)n4)c(F)c3)C(=O)O)CC2)c1 (centres unmarked) [Compound 4C],> 60%
8,Cc1ccc(N2CCN(C(=O)NC(Cc3ccc(-c4noc(-c5ccc(NC(=O)OC(C)(C)C)cc5)n4)c(F)c3)C(=O)O)CC2)cc1 (centres unmarked) [Compound 4D],> 60%
9,CC(C)(C)OC(=O)Nc1ccc(-c2nc(-c3ccc(CC(NC(=O)N4CCN(c5ccc(Cl)cc5)CC4)C(=O)O)cc3F)no2)cc1 (centres unmarked) [Compound 4K],> 60%
10,CC(C)(C)OC(=O)Nc1ccc(-c2nc(-c3ccc(CC(NC(=O)Nc4cc(-c5ccc(F)cc5)on4)C(=O)O)cc3F)no2)cc1 (centres unmarked) [Compound 4S],40 to 60%
11,Cc1ccc(-c2ccc(NC(=O)NC(Cc3ccc(-c4noc(-c5ccc(NC(=O)OC(C)(C)C)cc5)n4)c(F)c3)C(=O)O)nc2)cc1 (centres unmarked) [Compound 4T],40 to 60%

# Same assay, conditions: 6 h; concentration 3 μM; read-out: Activity (agonist), percentage of the activity of the control
row,SMILES,activation at 3 µM
1,CC(C)(C)OC(=O)Nc1ccc(-c2nc(-c3ccc(CC(NC(=O)c4cc(-c5ccc(F)cc5)n[nH]4)C(=O)O)cc3F)no2)cc1 (centres unmarked) [Compound 3R],> 60%
2,CC(C)(C)OC(=O)Nc1ccc(-c2nc(-c3ccc(CC(NC(=O)c4ccc(N5CCOCC5)cc4)C(=O)O)cc3F)no2)cc1 (centres unmarked) [Compound 3V],20 to 40%
3,"Cc1ccc(CN2CCN(S(=O)(=O)NC(Cc3ccc(-c4noc(-c5ccc(NC(=O)OC(C)(C)C)cc5)n4)c(F)c3)C(=O)O)CC2)cc1 (centres unmarked) [Compound 3X, 3-{4-[5-(4-tert-Butoxycarbonylamino-phenyl)-[1,2,4]oxadiazol-3-yl]-3-fluoro-phenyl}-2-[4-(4-methyl-benzyl)-piperazine-1-sulfonylamino]-propionic acid]",> 60%
4,Cc1ccc(N2CCN(S(=O)(=O)NC(Cc3ccc(-c4noc(-c5ccc(NC(=O)OC(C)(C)C)cc5)n4)c(F)c3)C(=O)O)CC2)cc1 (centres unmarked) [Compound 3Z],> 60%
5,CC(C)(C)OC(=O)Nc1ccc(C#Cc2ccc(CC(NC(=O)c3cccc(-c4ccc(Cl)cc4)c3)C(=O)O)cc2F)cc1 (centres unmarked) [Compound 4E],20 to 40%
6,Cc1cccnc1N1CCCN(C(=O)NC(Cc2ccc(-c3noc(-c4ccc(NC(=O)OC(C)(C)C)cc4)n3)c(F)c2)C(=O)O)CC1 (centres unmarked) [Compound 4R],20 to 40%
7,CC(C)(C)OC(=O)Nc1ccc(-c2nc(-c3ccc(CC(NC(=O)Nc4ccc(C#N)cc4)C(=O)O)cc3F)no2)cc1 (centres unmarked) [Compound 4U],40 to 60%
8,CC(C)(C)OC(=O)Nc1ccc(-c2nc(-c3ccc(CC(NC(=O)Nc4ccc(C(C)(C)C)cc4)C(=O)O)cc3F)no2)cc1 (centres unmarked) [Compound 4V],40 to 60%
9,CC(C)(C)OC(=O)Nc1ccc(-c2nc(-c3ccc(CC(NC(=O)Nc4ccc(N5CCCCC5)cc4)C(=O)O)cc3F)no2)cc1 (centres unmarked) [Compound 4Y],20 to 40%
10,Cc1ccc(-c2cccc(NC(=O)NC(Cc3ccc(-c4noc(-c5ccc(NC(=O)OC(C)(C)C)cc5)n4)c(F)c3)C(=O)O)c2)cc1 (centres unmarked) [Compound 5A],40 to 60%
11,Cn1nc(C(C)(C)C)cc1NC(=O)NC(Cc1ccc(-c2noc(-c3ccc(NC(=O)OC(C)(C)C)cc3)n2)c(F)c1)C(=O)O (centres unmarked) [Compound 5B],40 to 60%
12,CC(C)(C)OC(=O)Nc1ccc(-c2nc(-c3ccc(CC(NC(=O)Nc4ccc(-c5ccccc5F)cn4)C(=O)O)cc3F)no2)cc1 (centres unmarked) [Compound 5C],> 60%
13,CC(C)(C)OC(=O)Nc1ccc(-c2nc(-c3ccc(CC(NC(=O)N4CCC(c5ccccc5)C4)C(=O)O)cc3F)no2)cc1 (centres unmarked) [Compound 5D],> 60%

# Same assay, conditions: 6 h; concentration 3.16 μM; read-out: Activity (agonist), percentage of the activity of the control
row,SMILES,activation at 3.16 µM
1,Cc1ccc(S(=O)(=O)NC(C)(Cc2ccc(-c3noc(-c4ccc(NC(=O)OC(C)(C)C)cc4)n3)c(F)c2)C(=O)O)cc1 (centres unmarked) [Compound 3N],20 to 40%
2,CC(C)(C)OC(=O)Nc1ccc(-c2nc(-c3ccc(CC(NS(=O)(=O)N4CCN(c5ccccc5F)CC4)C(=O)O)cc3F)no2)cc1 (centres unmarked) [Compound 4B],40 to 60%
3,CC(C)(C)OC(=O)Nc1ccc(-c2nc(-c3ccc(CC(NC(=O)N4CCN(C(=O)OC(C)(C)C)CC4)C(=O)O)cc3F)no2)cc1 (centres unmarked) [Compound 4F],40 to 60%
4,CC(C)(C)OC(=O)Nc1ccc(-c2nc(-c3ccc(CC(NC(=O)Nc4cc(-c5ccccc5)n[nH]4)C(=O)O)cc3F)no2)cc1 (centres unmarked) [Compound 4G],> 60%
5,CC(C)(C)OC(=O)Nc1ccc(-c2nc(-c3ccc(CC(NC(=O)Nc4ccncc4)C(=O)O)cc3F)no2)cc1 (centres unmarked) [Compound 4H],> 60%
6,CC(C)(C)OC(=O)Nc1ccc(-c2nc(-c3ccc(CC(NC(=O)Nc4cc(-c5ccc(Cl)cc5)n[nH]4)C(=O)O)cc3F)no2)cc1 (centres unmarked) [Compound 4I],> 60%
7,COc1ccc(N2CCN(C(=O)NC(Cc3ccc(-c4noc(-c5ccc(NC(=O)OC(C)(C)C)cc5)n4)c(F)c3)C(=O)O)CC2)cc1 (centres unmarked) [Compound 4J],40 to 60%
8,CC(C)(C)OC(=O)Nc1ccc(-c2nc(-c3ccc(CC(NC(=O)Nc4ccnc(Cl)c4)C(=O)O)cc3F)no2)cc1 (centres unmarked) [Compound 4L],40 to 60%
9,Cc1ccc(NC(=O)NC(Cc2ccc(-c3noc(-c4ccc(NC(=O)OC(C)(C)C)cc4)n3)c(F)c2)C(=O)O)cc1 (centres unmarked) [Compound 4M],> 60%
10,CC(C)(C)OC(=O)Nc1ccc(-c2nc(-c3ccc(CC(NC(=O)Nc4ccc(Br)nc4)C(=O)O)cc3F)no2)cc1 (centres unmarked) [Compound 4N],20 to 40%
11,CC(C)(C)OC(=O)Nc1ccc(-c2nc(-c3ccc(CC(NC(=O)N4CCCN(c5ccc(F)cn5)CC4)C(=O)O)cc3F)no2)cc1 (centres unmarked) [Compound 4Q],> 60%

# Same assay, conditions: 6 h; concentration 10 μM; read-out: Activity (agonist), percentage of the activity of the control
row,SMILES,activation at 10 µM
1,CC(C)(C)OC(=O)Nc1ccc(-c2nc(-c3ccc(CC(NC(=O)c4cccc(Nc5ccccc5)c4)C(=O)O)cc3F)no2)cc1 (centres unmarked) [Compound 3T],40 to 60%
2,CC(C)(C)OC(=O)Nc1ccc(-c2nc(-c3ccc(CC(NS(=O)(=O)N4CCN(c5ccc(C(F)(F)F)cc5)CC4)C(=O)O)cc3F)no2)cc1 (centres unmarked) [Compound 3Y],> 60%
3,CC(C)(C)OC(=O)Nc1ccc(-c2nc(-c3ccc(CC(NS(=O)(=O)N4CCN(c5ccc(Cl)cc5)CC4)C(=O)O)cc3F)no2)cc1 (centres unmarked) [Compound 4A],40 to 60%
4,Cc1ccc(-c2ccc(NC(=O)NC(Cc3ccc(-c4noc(-c5ccc(NC(=O)OC(C)(C)C)cc5)n4)c(F)c3)C(=O)O)cn2)cc1 (centres unmarked) [Compound 4O],> 60%
5,CC(C)(C)OC(=O)Nc1ccc(-c2nc(-c3ccc(CC(NC(=O)N4CCCN(c5ccc(C#N)cc5)CC4)C(=O)O)cc3F)no2)cc1 (centres unmarked) [Compound 4P],> 60%
6,CC(C)c1ccc(NC(=O)NC(Cc2ccc(-c3noc(-c4ccc(NC(=O)OC(C)(C)C)cc4)n3)c(F)c2)C(=O)O)cc1 (centres unmarked) [Compound 4W],40 to 60%
7,CC(C)(C)OC(=O)Nc1ccc(-c2nc(-c3ccc(CC(NC(=O)Nc4ccc(-c5ccc(F)cc5)cn4)C(=O)O)cc3F)no2)cc1 (centres unmarked) [Compound 4X],> 60%
8,Cc1ccc(-c2ccc(NC(=O)NC(Cc3ccc(-c4noc(-c5ccc(NC(=O)OC(C)(C)C)cc5)n4)c(F)c3)C(=O)O)nc2)cc1Cl (centres unmarked) [Compound 4Z],40 to 60%
9,Cc1ccc(-c2ccc(C(=O)NC(Cc3ccc(C#Cc4ccc(NC(=O)OC(C)(C)C)cc4)c(F)c3)C(=O)O)o2)cc1 (centres unmarked) [Compound 5E],> 60%
